Tested on: chronic pain
Test: Subjective pain reduction in a person with chronic pain (case report, scale of 0-100% reduction)
Format: in vivo, human
Experimental: The tasks included many different routine physical tasks, but particularly included typing and use of a computer mouse. […] DHEA (50 mg/day) was also taken alone orally for three weeks. […] The degree was subjective based on a scale of 0-100% reduction, where 0% was no pain reduction and 100% was total pain elimination.
In addition to treatment with DHEA alone, the person of Example 1, was also treated with Nortriptyline alone and with a combination of 75 mg per day DHEA and 10 mg per day Nortriptyline.

With `C[C@]12CC[C@H](O)CC1=CC[C@@H]1[C@@H]2CC[C@]2(C)C(=O)CC[C@@H]12` [DHEA, dehydroepiandrosterone] the reduction in pain (50 mg/day alone orally for three weeks, by the end of the second week, subjective scale 0-100%) was “approximately 25%” and the “pain remaining, of the original pain” value (doses of 75 mg and I 00 mg for three weeks each, after 50 mg/day) was “less than 50%”.
With `CNCCC=C1c2ccccc2CCc2ccccc21` [Nortriptyline] the reduction in pain (alone, 10 mg per day) was “about 20%” and the “reduction in pain compared with 10 mg per day” value (alone, 25 and 50 mg doses) was “to greater extent”.
In the case of `Cc1ccc(-c2cc(C(F)(F)F)nn2-c2ccc(S(N)(=O)=O)cc2)cc1` [celecoxib], the reduction in pain (400 mg/day alone, subjective scale, 0% no pain reduction, 100% total pain elimination) is reported as “approximately 25%”.
In the case of `NCC1(CC(=O)O)CCCCC1` [gabapeatin, gabapentin], the pain relief (treatment with the drug alone, person with 5 year history of chronic pain) is reported as “did not result in pain relief”.

From US20060178354A1, “Methods and compositions for the treatment of chronic pain using dhea and derivatives thereof” (priority 2003, published 2006)
